From ChEMBL document CHEMBL2401728, “An unexpected Dimroth rearrangement leading to annelated thieno[3,2-d][1,2,3]triazolo[1,5-a]pyrimidines with potent antitumor activity” (Eur J Med Chem, 2013)

Legend:
Type in all cases: functional
SK-MEL-5 [1] = experiment: Cytotoxicity against human SK-MEL-5 cells assessed as cellular growth at 0.01 uM after 48 hrs by SRB assay relative to control
DU-145 [2] = experiment: Cytotoxicity against human DU145 cells assessed as cellular growth at 0.1 uM after 48 hrs by SRB assay relative to control
CCRF-CEM = experiment: Cytotoxicity against human CCRF-CEM cells assessed as cellular growth at 0.1 uM after 48 hrs by SRB assay relative to control
NCI-H522 [3] = experiment: Cytotoxicity against human NCI-H522 cells assessed as cellular growth at 1 uM after 48 hrs by SRB assay relative to control
MCF7 = experiment: Cytotoxicity against human MCF7 cells after 48 hrs by SRB assay; details: MCF7, 48 h
Hs-578T [4] = experiment: Cytotoxicity against human Hs578T cells assessed as cellular growth at 0.01 uM after 48 hrs by SRB assay relative to control
IGROV-1 [5] = experiment: Cytotoxicity against human IGROV1 cells assessed as cellular growth at 0.1 uM after 48 hrs by SRB assay relative to control
IGROV-1 [6] = experiment: Cytotoxicity against human IGROV1 cells assessed as cellular growth at 1 uM after 48 hrs by SRB assay relative to control
MDA-MB-435 [7] = experiment: Cytotoxicity against human MDA-MB-435 cells assessed as cellular growth at 100 uM after 48 hrs by SRB assay relative to control
K562 = experiment: Cytotoxicity against human K562 cells assessed as cellular growth at 100 uM after 48 hrs by SRB assay relative to control
OVCAR-3 = experiment: Cytotoxicity against human OVCAR3 cells after 48 hrs by SRB assay; details: OVCAR-3, 48 h
SK-MEL-5 [8] = experiment: Cytotoxicity against human SK-MEL-5 cells assessed as cellular growth at 100 uM after 48 hrs by SRB assay relative to control
HCT-15 = experiment: Cytotoxicity against human HCT15 cells assessed as cellular growth at 0.01 uM after 48 hrs by SRB assay relative to control
KM12 = experiment: Cytotoxicity against human KM12 cells assessed as cellular growth at 1 uM after 48 hrs by SRB assay relative to control
IGROV-1 [9] = experiment: Cytotoxicity against human IGROV1 cells at 10 uM after 48 hrs by SRB assay
NCI-H522 [10] = experiment: Cytotoxicity against human NCI-H522 cells assessed as cellular growth at 100 uM after 48 hrs by SRB assay relative to control
SF-539 [11] = experiment: Cytotoxicity against human SF539 cells assessed as cellular growth at 100 uM after 48 hrs by SRB assay relative to control
Malme-3M = experiment: Cytotoxicity against human MALME-3M cells assessed as cellular growth at 1 uM after 48 hrs by SRB assay relative to control
SF-539 [12] = experiment: Cytotoxicity against human SF539 cells after 48 hrs by SRB assay; details: SF-539, 48 h
SK-MEL-5 [13] = experiment: Cytotoxicity against human SK-MEL-5 cells assessed as cellular growth at 0.1 uM after 48 hrs by SRB assay relative to control
A549 [14] = experiment: Cytotoxicity against human A549 cells assessed as cellular growth at 0.1 uM after 48 hrs by SRB assay relative to control
U-251 [15] = experiment: Cytotoxicity against human U251 cells assessed as cellular growth at 0.1 uM after 48 hrs by SRB assay relative to control
NCI-H226 = experiment: Cytotoxicity against human NCI-H226 cells assessed as cellular growth at 0.01 uM after 48 hrs by SRB assay relative to control
UACC-257 = experiment: Cytotoxicity against human UACC257 cells assessed as cellular growth at 1 uM after 48 hrs by SRB assay relative to control
MDA-MB-468 = experiment: Cytotoxicity against human MDA-MB-468 cells after 48 hrs by SRB assay; details: MDA-MB-468, 48 h
HOP-92 [16] = experiment: Cytotoxicity against human HOP92 cells assessed as cellular growth at 0.1 uM after 48 hrs by SRB assay relative to control
ACHN = experiment: Cytotoxicity against human ACHN cells assessed as cellular growth at 0.01 uM after 48 hrs by SRB assay relative to control
Hs-578T [17] = experiment: Cytotoxicity against human Hs578T cells after 48 hrs by SRB assay
A549 [18] = experiment: Cytotoxicity against human A549 cells assessed as cellular growth at 1 uM after 48 hrs by SRB assay relative to control
DU-145 [19] = experiment: Cytotoxicity against human DU145 cells assessed as cellular growth at 1 uM after 48 hrs by SRB assay relative to control
HOP-92 [20] = experiment: Cytotoxicity against human HOP92 cells after 48 hrs by SRB assay; details: HOP-92, 48 h
A549 [21] = experiment: Cytotoxicity against human A549 cells assessed as cellular growth at 0.01 uM after 48 hrs by SRB assay relative to control
SNB-19 = experiment: Cytotoxicity against human SNB19 cells assessed as cellular growth at 1 uM after 48 hrs by SRB assay relative to control
SF-268 = experiment: Cytotoxicity against human SF268 cells assessed as cellular growth at 0.01 uM after 48 hrs by SRB assay relative to control
U-251 [22] = experiment: Cytotoxicity against human U251 cells assessed as cellular growth at 1 uM after 48 hrs by SRB assay relative to control
MDA-MB-435 [23] = experiment: Cytotoxicity against human MDA-MB-435 cells after 48 hrs by SRB assay; details: MDA-MB-435, 48 h
[24] = read-out: LC50 (the source's name)
[25] = read-out: pLC50 (the source's name) (converted)

**Q.** What does the source list for CN1CCN(CCCn2c3c(sc4ncccc43)c(=O)n3nnc(-c4ccccc4)c23)CC1?
**A.** Activity (SK-MEL-5 [1]): 96%; Activity (DU-145 [2]): 98%; Activity (CCRF-CEM): 99%; Activity (NCI-H522 [3]): 99%; GI50 (MCF7; read-out: GI50): 1.53 µM; LC50 (MCF7; read-out: LC50): 5.82 µM; TGI (MCF7; read-out: TGI): 2.99 µM; GI50 (MCF7; read-out: pGI50 (converted)): 1.55 µM; LC50 (MCF7; read-out: pLC50 (converted)): 5.75 µM; TGI (MCF7; read-out: pTGI (converted)): 3.02 µM; Activity (Hs-578T [4]): 95%; Activity (IGROV-1 [5]): 96%; Activity (IGROV-1 [6]): 94%; Activity (MDA-MB-435 [7]): -83%; Activity (K562): -29%; GI50 (OVCAR-3; read-out: GI50): 1.81 µM; CC50 (OVCAR-3; [24]): 6.68 µM; TGI (OVCAR-3; read-out: TGI): 3.48 µM; GI50 (OVCAR-3; read-out: pGI50 (converted)): 1.82 µM; CC50 (OVCAR-3; [25]): 6.61 µM; TGI (OVCAR-3; read-out: pTGI (converted)): 3.47 µM; Activity (SK-MEL-5 [8]): -96%; Activity (HCT-15): 94%; Activity (KM12): 91%; Activity (IGROV-1 [9]): -51%; Activity (NCI-H522 [10]): -35%; Activity (SF-539 [11]): -69%; Activity (Malme-3M): 105%; GI50 (SF-539 [12]; read-out: GI50): 1.71 µM; CC50 (SF-539 [12]; [24]): 6.54 µM; TGI (SF-539 [12]; read-out: TGI): 3.34 µM; GI50 (SF-539 [12]; read-out: pGI50 (converted)): 1.7 µM; CC50 (SF-539 [12]; [25]): 6.61 µM; TGI (SF-539 [12]; read-out: pTGI (converted)): 3.31 µM; Activity (SK-MEL-5 [13]): 92%; Activity (A549 [14]): 95%; Activity (U-251 [15]): 100%; Activity (NCI-H226): 95%; Activity (UACC-257): 97%; GI50 (MDA-MB-468; read-out: GI50): 1.82 µM; CC50 (MDA-MB-468; [24]): 5.96 µM; TGI (MDA-MB-468; read-out: TGI): 3.29 µM; GI50 (MDA-MB-468; read-out: pGI50 (converted)): 1.82 µM; CC50 (MDA-MB-468; [25]): 6.03 µM; TGI (MDA-MB-468; read-out: pTGI (converted)): 3.31 µM; Activity (HOP-92 [16]): 92%; Activity (ACHN): 105%; GI50 (Hs-578T [17]; read-out: GI50): 14.9 µM; CC50 (Hs-578T [17]; [24]): > 100 µM; TGI (Hs-578T [17]; read-out: TGI): 41.7 µM; GI50 (Hs-578T [17]; read-out: pGI50 (converted)): 14.8 µM; CC50 (Hs-578T [17]; read-out: pLC50 (converted)): > 100 µM; TGI (Hs-578T [17]; read-out: pTGI (converted)): 41.7 µM; Activity (A549 [18]): 95%; Activity (DU-145 [19]): 95%; GI50 (HOP-92 [20]; read-out: GI50): 6.31 µM; CC50 (HOP-92 [20]; [24]): 70.1 µM; TGI (HOP-92 [20]; read-out: TGI): 24.3 µM; GI50 (HOP-92 [20]; read-out: pGI50 (converted)): 6.31 µM; CC50 (HOP-92 [20]; [25]): 70.8 µM; TGI (HOP-92 [20]; read-out: pTGI (converted)): 24.5 µM; Activity (A549 [21]): 97%; Activity (SNB-19): 107%; Activity (SF-268): 96%; Activity (U-251 [22]): 98%; GI50 (MDA-MB-435 [23]; read-out: GI50): 1.87 µM; CC50 (MDA-MB-435 [23]; [24]): 6.68 µM; TGI (MDA-MB-435 [23]; read-out: TGI): 3.54 µM; GI50 (MDA-MB-435 [23]; read-out: pGI50 (converted)): 1.86 µM; CC50 (MDA-MB-435 [23]; [25]): 6.76 µM; TGI (MDA-MB-435 [23]; read-out: pTGI (converted)): 3.55 µM
